For the assay, the target named is T1, ArnT (undecaprenyl phosphate-alpha-4-amino-4-deoxy-L-arabinose arabinosyl transferase) (Pseudomonas aeruginosa, UniProt Q02R27).
T1 sequence (Q02R27 1-549): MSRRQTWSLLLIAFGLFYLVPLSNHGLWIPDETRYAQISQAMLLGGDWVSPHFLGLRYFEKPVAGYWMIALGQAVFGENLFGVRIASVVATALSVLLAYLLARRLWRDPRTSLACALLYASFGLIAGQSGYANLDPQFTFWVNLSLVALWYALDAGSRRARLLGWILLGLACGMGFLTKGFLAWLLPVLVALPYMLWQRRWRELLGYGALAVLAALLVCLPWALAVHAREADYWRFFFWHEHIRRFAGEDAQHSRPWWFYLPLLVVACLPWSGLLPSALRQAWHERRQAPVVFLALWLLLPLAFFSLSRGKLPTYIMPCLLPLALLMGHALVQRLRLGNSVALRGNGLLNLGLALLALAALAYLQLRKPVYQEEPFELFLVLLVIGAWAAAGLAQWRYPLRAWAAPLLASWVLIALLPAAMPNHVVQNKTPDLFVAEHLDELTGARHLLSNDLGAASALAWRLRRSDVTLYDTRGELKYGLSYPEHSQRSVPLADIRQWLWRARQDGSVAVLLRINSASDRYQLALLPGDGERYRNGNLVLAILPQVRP
Nature of the assay: intrinsic tryptophan fluorescence quenching titration, one-site binding fit.

Broadly, the Kd is the constant that tells how readily two partners part at equilibrium. Lower therefore signals a tighter complex. As for `C[C@@]12CC[C@@H]3[C@@](CC[C@@H]4[C@@](C)(COC(=O)C(=O)O)CCC[C@]43C)(CC1)C2` [FDO-H], the Kd is roughly 10 µM.

(Values after PMC12933751 (RSC Advances, 2026).)
